Measured values published in paper PMC12281477, “Live-Cell NanoBRET Assay to Measure AKT Inhibitor Binding to Conformational States of AKT” (ACS Chemical Biology, 2025).
One block for each molecule: values may come before it.

What was measured:
[1] = target: T1, AKT1-NL (Homo sapiens, UniProt P31749); assay: Live-cell steady-state NanoBRET target engagement assay, AKT1-NL; format: binding
T1 construct: full-length versions of AKT1, AKT2, and AKT3, were separately subcloned into pNLF1-N or pNLF1-C vectors; expressed in transfected cells; host or cells: HEK293T
T1 sequence (P31749 whole entry): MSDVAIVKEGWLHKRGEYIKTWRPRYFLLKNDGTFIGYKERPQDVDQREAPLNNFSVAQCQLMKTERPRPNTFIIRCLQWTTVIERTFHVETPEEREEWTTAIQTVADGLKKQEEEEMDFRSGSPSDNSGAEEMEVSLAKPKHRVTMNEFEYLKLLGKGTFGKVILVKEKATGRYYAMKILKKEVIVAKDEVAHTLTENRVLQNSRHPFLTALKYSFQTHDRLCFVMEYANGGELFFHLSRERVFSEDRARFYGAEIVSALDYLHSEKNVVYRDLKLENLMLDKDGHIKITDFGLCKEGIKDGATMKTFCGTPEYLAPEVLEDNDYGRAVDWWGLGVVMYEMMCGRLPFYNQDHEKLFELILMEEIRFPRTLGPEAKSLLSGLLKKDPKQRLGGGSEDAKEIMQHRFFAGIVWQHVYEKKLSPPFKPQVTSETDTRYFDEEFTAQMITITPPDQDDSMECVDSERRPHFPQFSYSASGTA

[2] = target: T2, Myr-AKT1-NL (Homo sapiens, UniProt P31749); assay: NanoBRET target engagement assay, Myr-AKT1-NL; format: binding
T2 construct: host or cells: HEK293T
T2 sequence (P31749 whole entry): as above
Excerpt: It was puzzling to understand why ATP-competitive inhibitors bound more tightly to some pathological mutants. […] To achieve an active AKT population characterized by increased phosphorylation and membrane association, we created N-terminally myristoylated AKT1–3-NL constructs (Figure A). AKT myristoylation is commonly used to keep AKT membrane-associated and available for phosphorylation by PDK1 and mTORC2. , We decided to use myristoylation instead of treatment with a PI3K-AKT stimulating hormone such as IGF1 because of transient time-dependent effects on phosphorylation that complicates the reproducibility of our NanoBRET assay. , Bioluminescent imaging of Myr-AKT1-NL, Myr-AKT2-NL, and Myr-AKT3-NL constructs confirmed that each isoform was associated at the cell membrane (Figure S4A).
Statistics were performed in Origin 2023.

[3] = target: T3, PDK1-NL (Homo sapiens, UniProt O15530); assay: NanoBRET competition assay using PDK1-NL; format: binding; details: ± SEM, n = 3 biological replicates; read-out: PDK1-NL calculated Ki
T3 sequence (O15530 1-556): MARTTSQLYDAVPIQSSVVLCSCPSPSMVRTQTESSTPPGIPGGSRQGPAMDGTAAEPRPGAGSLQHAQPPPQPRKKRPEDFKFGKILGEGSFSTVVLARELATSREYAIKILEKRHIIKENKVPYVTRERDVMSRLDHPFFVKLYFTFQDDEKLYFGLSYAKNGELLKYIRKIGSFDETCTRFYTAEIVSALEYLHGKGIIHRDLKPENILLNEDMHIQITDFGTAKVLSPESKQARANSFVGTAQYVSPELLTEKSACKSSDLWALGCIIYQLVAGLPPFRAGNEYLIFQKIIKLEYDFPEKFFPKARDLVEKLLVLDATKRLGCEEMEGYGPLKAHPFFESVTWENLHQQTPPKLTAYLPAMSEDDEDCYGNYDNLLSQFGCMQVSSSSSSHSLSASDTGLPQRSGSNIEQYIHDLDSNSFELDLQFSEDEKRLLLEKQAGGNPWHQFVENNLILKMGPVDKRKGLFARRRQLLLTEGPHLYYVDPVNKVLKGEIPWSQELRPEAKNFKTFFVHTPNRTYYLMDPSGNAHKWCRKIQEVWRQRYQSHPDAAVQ

[4] = target: T1, AKT1-NL; assay: Bioluminescent imaging of AKT1-NL localization in HEK293T cells; format: cell-based; details: 2 h treatment, compared to DMSO
Description: (§1) We also performed bioluminescent imaging on AKT1-NL, AKT2-NL, and AKT3-NL transfected into HEK293T cells treated individually with all AKT inhibitors for 2 h (Figure S1F). […] After incubation, 2 μL of NanoGlo substrate was added to each well and imaged using the GloMax Galaxy Bioluminescence Imager utilizing a 40× objective (Nikon CFI Plan Fluor- Material Number MRH01401) and exposure times ranging from 32 to 100 s. […] Images were processed in Fiji.

[5] = target: T4, AKT2-NL (Homo sapiens, UniProt P31751); assay: Bioluminescent imaging of AKT2-NL localization in HEK293T cells; format: cell-based; details: 2 h treatment, compared to DMSO
T4 construct: full-length versions of AKT1, AKT2, and AKT3, were separately subcloned into pNLF1-N or pNLF1-C vectors; expressed in transfected cells; host or cells: HEK293T
T4 sequence (P31751 whole entry): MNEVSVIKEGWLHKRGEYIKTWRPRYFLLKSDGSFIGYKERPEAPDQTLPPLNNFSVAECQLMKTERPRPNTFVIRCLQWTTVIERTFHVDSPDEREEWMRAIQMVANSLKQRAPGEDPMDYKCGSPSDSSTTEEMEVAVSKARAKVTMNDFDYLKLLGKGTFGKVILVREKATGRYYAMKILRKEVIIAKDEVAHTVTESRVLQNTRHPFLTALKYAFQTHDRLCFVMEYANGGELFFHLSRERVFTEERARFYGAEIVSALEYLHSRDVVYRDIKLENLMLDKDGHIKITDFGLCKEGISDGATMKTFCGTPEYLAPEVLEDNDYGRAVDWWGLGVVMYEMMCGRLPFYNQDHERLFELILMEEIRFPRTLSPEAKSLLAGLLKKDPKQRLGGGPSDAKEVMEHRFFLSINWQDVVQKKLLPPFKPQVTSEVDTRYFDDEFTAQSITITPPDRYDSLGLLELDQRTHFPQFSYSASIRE
Description: as §1

[6] = target: T5, AKT3-NL (Homo sapiens, UniProt Q9Y243); assay: Bioluminescent imaging of AKT3-NL localization in HEK293T cells; format: cell-based; set-up: full-length versions of AKT1, AKT2, and AKT3, were separately subcloned into pNLF1-N or pNLF1-C vectors; expressed in transfected cells; host or cells: HEK293T; details: 2 h treatment, compared to DMSO
T5 sequence (Q9Y243 whole entry): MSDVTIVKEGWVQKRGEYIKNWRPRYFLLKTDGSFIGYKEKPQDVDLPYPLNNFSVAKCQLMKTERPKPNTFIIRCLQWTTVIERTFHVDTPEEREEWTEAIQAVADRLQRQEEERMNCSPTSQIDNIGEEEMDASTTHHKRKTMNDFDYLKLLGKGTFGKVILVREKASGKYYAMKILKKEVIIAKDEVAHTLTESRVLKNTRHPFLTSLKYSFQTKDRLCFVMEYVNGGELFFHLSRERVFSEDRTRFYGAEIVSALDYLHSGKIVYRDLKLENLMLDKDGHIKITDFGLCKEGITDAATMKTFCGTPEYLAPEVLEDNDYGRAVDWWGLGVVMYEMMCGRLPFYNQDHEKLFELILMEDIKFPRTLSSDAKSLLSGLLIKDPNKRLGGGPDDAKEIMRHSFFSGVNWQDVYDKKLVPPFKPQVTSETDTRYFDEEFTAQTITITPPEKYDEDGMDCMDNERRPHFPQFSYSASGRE
Description: as §1

[7] = test system: MDA-MB-231 cells; assay: Resazurin cell viability assay, MDA-MB-231; format: cell-based; details: Homo sapiens, MDA-MB-231, 120 h, 5 days, ± SEM, n = 3
[8] = test system: MDA-MB-468 cells; assay: Resazurin cell viability assay, MDA-MB-468; format: cell-based; details: Homo sapiens, MDA-MB-468, 120 h, 5 days, ± SEM, n = 3
[9] = target: T5, AKT3-NL; assay: Live-cell steady-state NanoBRET target engagement assay, AKT3-NL
[10] = target: T6, AKT3-E17K-NL (Homo sapiens, UniProt Q9Y243, E17K); assay: NanoBRET competition assay, AKT3-E17K-NL; format: binding
T6 construct: full-length versions of AKT1, AKT2, and AKT3, were separately subcloned into pNLF1-N or pNLF1-C vectors; expressed in transfected cells
T6 sequence (Q9Y243 whole entry E17K): as the sequence (Q9Y243 whole entry) above, with E17K counted along it

[11] = vs absence of BX-795, 0.2% DMSO

- Concentration at which some binding to AKT1-NL was observed ([1]; dose-response curve): higher than 1 μM
- Concentration at which some binding to Myr-AKT1-NL was observed ([2]; dose-response curve): higher than 1 μM
- Ki [3]: 5.85 ± 0.42 nM
SMILES: O=C(NCCCNc1nc(Nc2cccc(NC(=O)N3CCCC3)c2)ncc1I)c1cccs1 [BX-795]

SMILES: O=c1[nH]c2ccccc2n1C1CCN(Cc2ccc(-c3nc4cc5[nH]cnc5cc4nc3-c3ccccc3)cc2)CC1 [inhibitor VIII]
- AKT1-NL localization change [4]: did not induce AKT localization changes
- AKT2-NL localization change [5]: did not induce AKT localization changes
- AKT3-NL localization change [6]: did not induce AKT localization changes

SMILES: Cc1n[nH]c2ccc(-c3cncc(OCC(N)Cc4c[nH]c5ccccc45)c3)cc12 (stereo not shown) [A-443654]
- Ki [1]: 32.7 ± 14.1 nM
- Binding to AKT1-NL in the presence of 1 μM BX-795 [1, 11]: unaffected
- Binding to Myr-AKT1-NL in the presence of 1 μM BX-795 [2, 11]: bound more weakly
- IC50 [7]: 330 ± 10 nM
- IC50 [8]: 20 ± 1 nM
- AKT1-NL localization change [4]: induced movement of all isoforms to the cell membrane and nucleus
- Ki [9]: 16.6 ± 5.5 nM
- AKT3-NL localization change [6]: induced movement of all isoforms to the cell membrane and nucleus

- Binding to AKT3-E17K-NL [10]: did not bind
- AKT1-NL localization change [4]: did not induce AKT localization changes
- AKT2-NL localization change [5]: did not induce AKT localization changes
- AKT3-NL localization change [6]: did not induce AKT localization changes
SMILES: NC1(c2ccc(-c3nc4ccn5c(=O)[nH]nc5c4cc3-c3ccccc3)cc2)CCC1 [MK-2206]

SMILES: CC(C)NC[C@@H](C(=O)N1CCN(c2ncnc3c2[C@H](C)C[C@H]3O)CC1)c1ccc(Cl)cc1 [ipatasertib]
- AKT1-NL localization change [4]: induced the movement of some AKT to the cell membrane
